Results published in patent publication US20200031778A1, “NOVEL 5-SUBSTITUTED IMIDAZOLYLMETHYL DERIVATIVES” (Bayer CropScience Aktiengesellschaft, priority 2016, published 2020).

Test: Log P by HPLC on reversed phase columns (EEC directive 79/831 Annex V.A8; methods [a], [b], [c])
Type: physicochemical
How it was run: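 Log P derived from retention times, interpolated linearly between bracketing straight-chain alkan-2-ones (3–16 carbons) of known Log P. Eluents ran acetonitrile 10% to 95% against water with 0.1% formic acid ([a], acidic), 0.001 M ammonium acetate ([b], neutral) or 0.1% phosphoric acid ([c], acidic); UV read-out.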

LogP	Compound	other results
3.05^[a]	N#Cc1cncn1CC(O)(c1ccc(F)cc1F)C1CCCCC1 (stereo not shown) [I-481]	
2.42^[a]	OC(Cn1cncc1F)c1cnc(Oc2ccc(OC(F)(F)F)cc2)cc1C(F)(F)F (stereo not shown) [I-121]	
2.57^[a]	N#Cc1cncn1CC(O)(c1ccc(Cl)cc1F)C1(Cl)CC1 (stereo not shown) [I-358]	
3.11^[a]	N#Cc1cncn1CC(O)(c1ccc(C#CC2CC2)cc1F)C1(Cl)CC1 (stereo not shown) [I-651]	
	C[Si](C)(C)C#CCOc1ccc(C(O)(Cn2cncc2C#N)C2(F)CC2)c(F)c1 (stereo not shown) [I-415, 3-[2-(1-fluorocyclopropyl)-2-[2-fluoro-4-(3-trimethylsilylprop-2-ynoxy)phenyl]-2-hydroxy-ethyl]imidazole-4-carbonitrile]	chromatographic logP (HPLC on reversed phase columns, method [a]): 3.68
2.94^[a]	N#Cc1cncn1CC(O)c1ccc(Oc2ccc(Cl)cc2F)nc1C(F)(F)F (stereo not shown) [I-136]	
3.09^[a]	N#Cc1cncn1CC(O)c1ccc(Oc2ccc(Cl)cc2)cc1C(F)F (stereo not shown) [I-72]	
3.13^[a]	N#Cc1cncn1CC(O)c1cnc(Oc2ccc(C(F)(F)F)cc2)cc1Br (stereo not shown) [I-130]	
2.92^[a]	N#Cc1cncn1CC(O)(c1ccc(C#CC2CC2)cc1F)C1(F)CC1 (stereo not shown) [I-643]	
2.20^[a]	N#Cc1cncn1CC(O)(C#Cc1ccccc1)C1(F)CC1 (stereo not shown) [I-371]	
2.35^[a]	N#Cc1cncn1CC(O)(c1ccccc1C(F)(F)F)C1(Cl)CC1 (stereo not shown) [I-344]	
2.75^[a]	CCCC(O)(Cn1cncc1C#N)c1ccc(F)cc1Br (stereo not shown) [I-408]	
3.37^[a]	N#Cc1cncn1CC(O)(c1ccc(/C=C/C2CC2)cc1Cl)C1(Cl)CC1 (stereo not shown) [I-365]	
2.29^[a]	N#Cc1cncn1CC(O)(c1cc(F)cc(Cl)c1F)C1(F)CC1 (stereo not shown) [I-613]	
2.52^[a]	CC(C)CC#CC(O)(CC1CC1)Cn1cncc1C#N (stereo not shown) [I-451]	
3.06^[a]	CC(C)(C)CC(O)(Cn1cncc1C#N)c1ccc(F)cc1F (stereo not shown) [I-238]	
2.23^[a]	COc1ccc(Oc2ccc(C(O)Cn3cncc3Cl)c(Cl)n2)c(Cl)c1 (stereo not shown) [I-16]	
2.20^[a]	OC(Cn1cncc1F)c1ccc(Oc2ccc(C(F)F)cc2)nc1C(F)(F)F (stereo not shown) [I-148]	
2.49^[a]	N#Cc1cncn1CC(O)(c1cc(F)cc(Cl)c1Cl)C1(F)CC1 (stereo not shown) [I-568]	
2.62^[a]	CC(O)(Cn1cncc1Cl)c1cnc(Oc2ccc(Cl)cc2)cc1C(F)(F)F (stereo not shown) [I-175]	
3.27^[a]	CC(O)(Cn1cncc1C#N)c1cnc(Oc2ccc(C(F)(F)F)cc2)cc1Br (stereo not shown) [I-253]	
2.39^[a]	CCCC(O)(Cn1cncc1C#N)c1ccc(F)cc1F (stereo not shown) [I-400]	
2.47^[a]	N#Cc1cncn1CC(O)c1ccc(Oc2ccc(Br)nc2)cc1Cl (stereo not shown) [I-73]	

LogP	Compound	other results
3.27^[a]	CC(C)(C)CC(O)(Cn1cncc1C#N)c1ccccc1Br (stereo not shown) [I-308]	
2.64^[a]	N#Cc1cncn1CC(O)(c1ccc(Cl)c(F)c1Cl)C1(Cl)CC1 (stereo not shown) [I-617]	
2.39^[a]	N#Cc1cncn1CC(O)(c1cccc(Cl)c1Cl)C1(F)CC1 (stereo not shown) [I-438]	
3.52^[a]	C[Si](C)(C)C#CC(O)(Cn1cncc1C(F)(F)F)C1(Cl)CC1 (stereo not shown) [I-607]	
2.90^[a]	CC(O)(Cn1cncc1Cl)c1ccc(Oc2ccc(OC(F)(F)F)cc2)c(Br)c1 (stereo not shown) [I-157]	
	O=C(Cn1cncc1Cl)c1ccc(Oc2ccc(OC(F)(F)F)cc2)c(Br)c1 [IX-10]	chromatographic logP (reversed phase HPLC column, method [a]: LC-UV, acidic range, 0.1% formic acid in water and acetonitrile as eluent (linear gradient from 10% to 95% acetonitrile)): 3.41
4.15^[a]	N#Cc1cncn1CC(O)(c1ccc(C#CC2CCCC2)cc1Cl)C1(Cl)CC1 (stereo not shown) [I-656]	
2.58^[a]	CC(O)(Cn1cncc1C#N)c1cnc(Oc2ccc(Br)nc2)cc1C(F)(F)F (stereo not shown) [I-362]	
3.29^[a]	CC(O)(Cn1cncc1C#N)c1cnc(Oc2ccc(Cl)cc2F)cc1C(F)(F)F (stereo not shown) [I-233]	
2.41^[a]	C/C=C(\C)C(O)(Cn1cncc1C#N)c1ccc(F)cc1F (stereo not shown) [I-396]	
2.34^[a]	CC(O)(Cn1cncc1F)c1ccc(Oc2ccc(Cl)cc2)cc1Cl (stereo not shown) [I-194]	
2.58^[a]	Cc1ccc(C(O)(Cn2cncc2C#N)C2(Cl)CC2)c(Cl)c1 (stereo not shown) [I-331]	
2.54'^[a]	N#Cc1cncn1CC(O)(CCCC(Cl)CCl)C1(F)CC1 (stereo not shown) [I-678]	
3.76^[a]	COC(Cn1cncc1Cl)c1ccc(Oc2ccc(Br)cc2)cc1Br (stereo not shown) [I-52]	
2.52^[a]	N#Cc1cncn1CC(O)(CC1CC1)c1ccc(F)c(Cl)c1 (stereo not shown) [I-485]	
3.85^[a]	CN(C)C(=O)OC(Cn1cncc1C#N)c1ccc(Oc2ccc(Br)cc2)cc1C(F)(F)F (stereo not shown) [I-92]	
2.51^[a]	N#Cc1cncn1CC(O)(c1cc(F)cc(Br)c1)C1(F)CC1 (stereo not shown) [I-537]	
2.96^[a]	OC(Cn1cncc1Cl)c1ccc(Oc2ccc(Br)cc2)cc1C(F)(F)F (stereo not shown) [I-20]	
1.92^[a]	NC(=S)c1cncn1CC(O)(c1ccc(Cl)cc1Br)C1(F)CC1 (stereo not shown) [I-505]	
2.11^[a]	N#Cc1cncn1CC(O)(C#CC1CC1)C1(Cl)CC1 (stereo not shown) [I-692]	
1.99^[a]	COc1ccc(C(O)(Cn2cncc2C#N)C2(F)CC2)c(Cl)n1 (stereo not shown) [I-549]	
2.78^[a]	N#Cc1cncn1CC(O)(c1ccc(S(F)(F)(F)(F)F)cc1)C1(F)CC1 (stereo not shown) [I-379]	
3.07^[a]	CC(C)(C)C(O)(Cn1cncc1C#N)c1cc(F)c(F)c(Cl)c1 (stereo not shown) [I-544]	

LogP	Compound	other results
2.71^[a]	N#Cc1cncn1CC(O)(c1ccc(Br)cc1Br)C1(F)CC1 (stereo not shown) [I-433]	
2.39^[a]	CCCC(O)(Cn1cncc1C#N)c1ccc(Cl)cc1 (stereo not shown) [I-289]	
2.23^[a]	OC(Cn1cncc1F)c1cnc(Oc2ccc(Cl)cc2)cc1C(F)(F)F (stereo not shown) [I-119]	
3.50^[a]	CC(O)(Cn1cncc1C#N)c1ccc(Oc2ccc(Cl)cc2)cc1Br (stereo not shown) [I-216]	
4.03^[a]	COCOC(Cn1cncc1C#N)c1ccc(Oc2ccc(Cl)cc2)cc1C(F)(F)F (stereo not shown) [I-82]	
2.18^[a]	N#Cc1cncn1CC(O)(c1ccc(F)cc1F)C1CC1 (stereo not shown) [I-410]	
2.54^[a]	N#Cc1cncn1CC(O)(c1cc(F)c(F)c(Cl)c1)C1(F)CC1 (stereo not shown) [I-476]	
2.88^[a]	N#Cc1cncn1CC(O)(c1ccc(Br)cc1Cl)C1CC1 (stereo not shown) [I-420]	
4.69^[a]	CCOC(Cn1cncc1C#N)c1ccc(Oc2ccc(Br)cc2)cc1C(F)(F)F (stereo not shown) [I-91]	
3.83^[a]	CC(C)(C)C#Cc1ccc(C(O)(Cn2cncc2C#N)C2(F)CC2)c(Cl)c1 (stereo not shown) [I-642]	
3.20^[a]	CC(O)(Cn1cncc1C#N)c1ccc(Oc2ccc(Cl)cc2)cc1F (stereo not shown) [I-188]	
2.41^[a]	N#Cc1cncn1CC(O)(c1ccc(Cl)c(F)c1F)C1(F)CC1 (stereo not shown) [I-637]	
2.75^[a]	N#Cc1cncn1CC(O)(c1ccc(C(F)(F)F)cc1Cl)C1(F)CC1 (stereo not shown) [I-383]	
2.45^[a]	N#Cc1cncn1CC(O)(c1c(F)cc(F)cc1Cl)C1(Cl)CC1 (stereo not shown) [I-563]	
3.67^[a]	N#Cc1cncn1CC(=O)c1cnc(Oc2ccc(S(F)(F)(F)(F)F)cc2)cc1C(F)(F)F [IX-81]	
3.31^[a]	C[Si](C)(C#CC(O)(Cn1cncc1C#N)C1(Cl)CC1)c1ccccc1 (stereo not shown) [I-594]	
2.83^[a]	CC(C)(C)CC(O)(Cn1cncc1C#N)c1ccc(Br)cc1Cl (stereo not shown) [I-334]	
3.25^[a]	CC(O)(Cn1cncc1C#N)c1ccc(Oc2ccc(C(F)(F)F)cc2)nc1C(F)(F)F (stereo not shown) [I-312]	
2.86^[a]	OC(Cn1cncc1Cl)c1ccc(Oc2ccc(Cl)cc2)cc1C(F)(F)F (stereo not shown) [I-21]	
3.02^[a]	OC(Cn1cncc1Br)c1ccc(Oc2ccc(Br)cc2)cc1C(F)(F)F (stereo not shown) [I-26]	
2.84^[a]	OC(Cn1cncc1Br)c1ccc(Oc2ccc(Cl)cc2)cc1C(F)(F)F (stereo not shown) [I-29]	
